Experiments:
[1] = test system: MYC G4 flanking variants 5′-NNGGGTGGGGAGGGTGGGNN-3′; test: G4 microarray competition with Cy5-PDS, flanking (tail) variants; set-up: species or system human; conditions: from reduction of Cy5-PDS binding in the presence of competitor
Text: Whether the microarray platform could be used to reveal the G4-binding specificity of unlabeled molecules via a competition with Cy5-PDS binding was explored. Three example molecules, unlabeled PDS, TMPyP4 (a planar molecule that nonspecifically binds G4 structures^14), and DC-34 (a molecule that selectively binds the MYC G4^15) were examined. […] The binding of unlabeled DC-34 was examined (FIG. 4). There appear to be no features that are better-bound in the presence of DC-34. […] This is consistent with the observation that DC-34 binds the top and bottom surfaces of the G4 and makes specific contacts with purines in the tail sequences.^15 The general properties of features in which DC-34 reduced binding of Cy5-PDS (ratio of PDS/PDS+DC-34) were also examined. […]
DNA Microarray Binding Experiments DNA microarray experiments were performed and analyzed as described previously. […]
Data Processing and Analysis Molecule-bound microarrays were scanned with an Agilent G5761A SureScan Dx Microarray Scanner System to detect Cy5 signal at two laser settings (30 and 100 PMT). Spot intensities from microarray images were extracted using Agilent Feature Extraction Software and are reported as raw fluorescence intensities. […]

[2] = test system: MYC_14/23T G4; test: G4 microarray competition with Cy5-PDS, MYC_14/23T; type: binding, human; conditions: MYC_14/23T G4, 1 μM BMVC and 1 μM Cy5-PDS
Method: Custom G4 microarrays have been designed that contain a total of 19,249 G4 DNA sequences [31, the entirety of disclosure of which, including the supplemental information, is incorporated herein by reference]. The G4 microarrays were created by covalently attaching thousands of unique G4-forming DNA 60-mers to a glass surface. Pyridostatin (PDS) is a known G4-interactive compound. […] To test the binding selectivity of BMVC, competition experiments using custom G4 microarrays were performed. The addition of potassium-containing solution to G4-forming oligonucleotides induced G4 formation. […] After washing to remove the unbound Cy5-PDS and BMVC, the fluorescence intensities of Cy5-PDS bound to DNA oligonucleotides were detected using a fluorescence scanner. The binding selectivity of BMVC to different G4 structures was assessed by measuring the relative fluorescence intensity reduction of Cy5-PDS as BMVC concentration increased.
To determine the G4-binding selectivity of BMVC, the BMVC binding to known G4 structures was examined, including 7 well-studied MYC promoter G4 sequences, 15 other oncogene promoter G4 sequences, and 3 human telomeric G4 sequences (TABLE 4). BMVC competes with the binding of Cy5-PDS to most G4 sequences in a dose-dependent manner as indicated by reduced fluorescence intensities (FIG. 8a). […]

[3] = test system: basket-type (wtTel22 in Na+) and hybrid-type (Tel26 in K+) human telomeric G4s; test: 1D 1H NMR titration with telomeric G4s; type: binding
Text: The binding selectivity of BMVC to G4 structures and flanking sequences was confirmed by NMR titration experiments of BMVC to different G4 sequences, including parallel-stranded MYC_14/23T G4 and its 5′- and 3′-flanking variants, VEGF and MYC1234 G4s, basket-type human telomeric G4 (wtTel22 in Na+), and hybrid type human telomeric G4 (Tel26 in K+) (FIG. 12). BMVC binds best to the MYC_14/23T G4, as indicated by well-resolved imino proton peaks for BMVC complexes (FIG. 12, panel a). […] In contrast, the 3′-end binding of BMVC is sensitive to the mutations at the 3′-flanking sequence, with a clear preference for the 3′-flanking T. In addition, BMVC prefers at least two flanking bases for a specific binding.
G4 DNA oligonucleotides were synthesized using β-cyanoethylphosphoramidite solid-phase chemistry (Applied Biosystem Expedite 8909), as described previously. NMR experiments were performed on a Bruker AV-III-500-HD equipped with a BBFO Z-gradient cryoprobe. DNA samples were heated to 95° C. for 5 min, then cooled slowly for G4 formation. For the 1D 1H NMR experiments, samples contained 100-250 μM DNA in an appropriate buffer solution with 10% D2O for the lock. The titrations were performed by adding increasing amounts of the compounds to the DNA samples in solution.

reduction of Cy5-PDS binding among all parallel G4s [2]: largest reduction
binding to basket-type or hybrid-type human telomeric G4s by NMR titration [3]: did not show specific binding
SMILES: C[n+]1ccc(/C=C/c2ccc3[nH]c4ccc(/C=C/c5cc[n+](C)cc5)cc4c3c2)cc1.[I-].[I-] [BMVC, 3,6-Bis(1-methyl-4-vinylpyridinium) carbazole diiodide]
flanking sequence preference of competitor [1]: strongly prefers the MYC G4 with the 3′-flanking T
